This note sets out measurements from PMC9705314, “Characterization of a new potent and long-lasting single chain peptide agonist of RXFP1 in cells and in vivo translational models” (Scientific Reports, 2022).

*1 amine or outer side, *2 acyl side, *3 side chain or, on linkers, in order; H or OH if unused. Where a SMILES comes first, the peptide text is derived from it. Side-chain parts run from the residue outwards. [ ]: non-standard residue; d: D form. The star is where a group is joined. γGlu = O=C(O)[C@H](CCC(=O)[*:2])N[*:1]; Stearoyl = CCCCCCCCCCCCCCCCCC(=O)*; Nle = CCCC[C@H](N)C(=O)O; AEEA = NCCOCCOCC(=O)O; Aib = CC(C)(N)C(=O)O

Data set [1] is described as follows: Pharmacokinetics in Sprague-Dawley rats. It is filed as in vivo, rat. The settings on record: for T1/2 (apparent terminal half-life): 1 mg/kg; for CL / AUXext: IV 1 mg/kg. On the procedure: Sprague Dawley rats (10–12 weeks old) obtained from Charles Rivers Laboratories (Como, Iltaly) were dosed with study peptide at 1 mg/kg IV and 3 mg/kg SC as a solution in PBS (0.2 mg/mL and 0.6 mg/mL respectively). Blood samples were collected from individual animals at the following time points: 0.083, 0.25, 0.5, 1, 3, 6, 8, 24, 48 and 72 h (IV route) and 0.25, 0.5, 1, 2, 4, 8, 12, 24, 48 and 72 h (SC route). All samples, collected into K3-EDTA tubes, were centrifuged and plasma was harvested and stored at − 80 °C until analysis. Two hundred μL of 0.1% formic acid in methanol containing 10 ng/mL warfarin as internal standard were added to 50 μL of standard, QC and PK study samples to obtain the protein precipitation. Each sample was vortexed and centrifuged, for 20 min, at 17,000 rcf at 4 °C. Ten microliters of the extracted plasma samples were injected onto the column. Chromatographic separation was performed on an Ultimate 3000 (Thermo Scientific) chromatography system using an XSelect Peptide CSH C18, (50 mm × 2.1 mm I.D., 2.5 μm, 130 Å; Waters Corporation) with a flow rate of 0.500 mL/min at 60 °C and a two-solvent linear gradient system. Solvents A (water) and B (acetonitrile) contained both 0.1% formic acid. […] The Ultimate 3000 was coupled to an Orbitrap QExactive™ mass spectrometer (Thermo Scientific) in positive mode. Quantitation was performed in full scan. The optimized source parameters were as follows: ion spray voltage 2.9 kV, sheath gas flow 50 a.u., aux gas flow 15 a.u., aux T 300 °C, capillary T 320 °C, S-lens RF level 50%. Full MS parameters were as follows: mass range 150–2000, AGC target 1 × 10^6, max injection time 250 ms, resolution 70,000 (FWHM @ 200 m/z). Data processing was performed using Xcalibur 3.0 (Thermo Scientific). Ion current of the [M + 5H]5 + of the SA10SC-RLX was extracted with 5 ppm window for quantitation (814.47219 m/z). A calibration curve with 12 standard points was prepared freshly on the day of analysis by spiking appropriate amounts of an intermediate working standard solution into blank rat plasma and ranged from 1.22 to 20,000 ng/mL (0.30–4910 nM). Three QC samples, each at six concentration levels from 5.0 to 15,000 ng/mL (1.22–3690 nM), were used for all analyses. Calibration curves were prepared by plotting the analyte to internal standard peak area ratio versus concentration. Calibration standards were fit by linear regression with 1/x^2 weighting. QC samples (n = 3) were used at six concentration levels. Accepted calibration curve contained minimum 7 concentration levels within ± 20% of nominal. Accepted QCs were within ± 25% of nominal. PK parameters were calculated by non-compartmental analysis using Watson LIMS 7.5.

The target in another data set is T1, hRXFP1 (S69P) (Homo sapiens, UniProt Q9HBX9, S69P).
T1 sequence (Q9HBX9 1-757 S69P): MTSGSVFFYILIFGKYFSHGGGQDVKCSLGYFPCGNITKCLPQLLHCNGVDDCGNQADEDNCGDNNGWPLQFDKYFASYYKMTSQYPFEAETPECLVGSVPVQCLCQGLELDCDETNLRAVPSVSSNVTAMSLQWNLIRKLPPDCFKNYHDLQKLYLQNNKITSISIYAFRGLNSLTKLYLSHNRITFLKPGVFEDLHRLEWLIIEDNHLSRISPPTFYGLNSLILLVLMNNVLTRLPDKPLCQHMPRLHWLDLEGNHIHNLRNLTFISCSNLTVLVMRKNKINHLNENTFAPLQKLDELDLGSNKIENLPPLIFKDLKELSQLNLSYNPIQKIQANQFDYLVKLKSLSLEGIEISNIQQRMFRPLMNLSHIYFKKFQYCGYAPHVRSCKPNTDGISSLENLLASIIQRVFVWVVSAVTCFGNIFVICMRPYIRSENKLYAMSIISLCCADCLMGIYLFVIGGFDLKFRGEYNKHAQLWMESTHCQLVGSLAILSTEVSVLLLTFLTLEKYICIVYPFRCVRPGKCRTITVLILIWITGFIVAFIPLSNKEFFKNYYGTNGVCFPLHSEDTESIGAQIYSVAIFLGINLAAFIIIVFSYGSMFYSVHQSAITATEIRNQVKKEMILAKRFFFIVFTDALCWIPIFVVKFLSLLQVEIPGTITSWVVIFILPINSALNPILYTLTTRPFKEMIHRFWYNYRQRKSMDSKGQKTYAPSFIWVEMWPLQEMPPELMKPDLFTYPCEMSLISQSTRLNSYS
The data set is described as follows: cAMP production in HEK cells expressing hRXFP1 (S69P). It is filed as cell-based. The settings on record: hRXFP1 S69P mutant, n = 4 experiments in duplicate. On the procedure:
HEK cells were stably transduced with lentiviral constructs (Vectalys, MOI 20, batches rV2.1A1.5057 B, rV2.1A1.5056 B and rV2.1A1.5059 B) containing a bicistronic vectors encoding hRXFP1 (S69P) or hRXFP1 (F76V) or hRXFP1 (S69P/F76V) under the EF1 promoter followed by an internal ribosome entry site (IRES) elements to express the neomycin antibiotic resistance gene for selection with 500 μg/mL Geneticin (Invitrogen, #10131-019). Three days post transduction, HEK cells were grown in the presence of Genetecin. Positive individual clones were selected and amplified, and cAMP readout (nM) was used as described for other cell types at a cell density of 8000 cells/well.

In the case of `CCCCCCCCCCCCCCCCCC(=O)N[C@@H](CCC(=O)N[C@@H](CCC(=O)N[C@@H](CCC(=O)NCCOCCOCC(=O)NCCOCCOCC(=O)NCCOCCOCC(=O)NCCCC[C@H](NC(=O)[C@H](CCCCNC(C)=O)NC(=O)[C@H](CCCCN)NC(=O)[C@H](CCCNC(=N)N)NC(=O)C(C)(C)NC(=O)[C@H](CO)NC(=O)[C@H](Cc1c[nH]c2ccccc12)NC(=O)[C@@H](NC(=O)[C@H](CO)NC(=O)[C@H](CCCC)NC(=O)CNC(=O)[C@H](CCC(=O)O)NC(=O)C(C)(C)NC(=O)C(C)(C)NC(=O)[C@@H](NC(=O)[C@H](CCCCNC(C)=O)NC(=O)[C@H](C)NC(=O)[C@H](CCCNC(=N)N)NC(=O)[C@@H](NC(=O)[C@H](CCCCN)NC(=O)[C@H](CCC(=O)O)NC(=O)[C@H](CCCNC(=N)N)NC(=O)CNC(=O)[C@H](CCC(=O)O)NC(=O)[C@H](CC(C)C)NC(C)=O)C(C)C)[C@@H](C)CC)[C@@H](C)O)C(N)=O)C(=O)O)C(=O)O)C(=O)O` [SA10SC-RLX] (Ac-LEGREKVRAK(Ac)I[Aib][Aib]EG[Nle]STWS[Aib]RKK(Ac)K([AEEA-AEEA-AEEA-γGlu-γGlu-γGlu-Stearoyl])-NH2), the level at time molar at 12 h in data set [1] (Sprague-Dawley, rat, plasma, rats, SC 3 mg/kg, read-out: plasma concentration after 12 h) is roughly 1000 nM. The “T1/2 (apparent terminal half-life)” value in data set [1] (male Sprague-Dawley rats, IV 1 mg/kg in PBS, plasma, LC-HRMS, non-compartmental analysis, mean of n = 3) is 4 h; in data set [1] (male Sprague-Dawley rats, IV 1 mg/kg in PBS, plasma, LC-HRMS, non-compartmental analysis, mean of n = 3, listed as SA10SC_RLX) it was 3.9 h. Besides, the CL in data set [1] (male Sprague-Dawley rats, plasma, LC-HRMS, animal 1) stood at 0.48 mL/min/kg; in data set [1] (male Sprague-Dawley rats, plasma, LC-HRMS, animal 2), 0.44 mL/min/kg; in data set [1] (male Sprague-Dawley rats, plasma, LC-HRMS, animal 3), 0.38 mL/min/kg. Besides, the AUXext worked out at 1.01% in data set [1] (male Sprague-Dawley rats, plasma, animal 1); 1.01% in data set [1] (male Sprague-Dawley rats, plasma, animal 2); 1.02% in data set [1] (male Sprague-Dawley rats, plasma, animal 3). The same compound showed a Cmax in data set [1] (male Sprague-Dawley rats, SC 3 mg/kg in PBS, plasma, LC-HRMS, non-compartmental analysis, mean of n = 3) of 1500 nM. In addition, in data set [1] (male Sprague-Dawley rats, SC 3 mg/kg in PBS, plasma, LC-HRMS, mean of n = 3), the Tmax came out at 8 h. The F in data set [1] (male Sprague-Dawley rats, SC 3 mg/kg vs IV 1 mg/kg, mean of n = 3) came out at 74%. Also, in data set [1] (male Sprague-Dawley rats, SC 3 mg/kg, plasma, mean of n = 3), the AUCext is recorded as 1.09%. Also, the AUC in data set [1] (rat, male Sprague-Dawley rats, IV 1 mg/kg in PBS, plasma, LC-HRMS, non-compartmental analysis, mean of n = 3) amounted to 9.57 µM·h; in data set [1] (rat, male Sprague-Dawley rats, SC 3 mg/kg in PBS, plasma, LC-HRMS, non-compartmental analysis, mean of n = 3), 21.2 µM·h. In data set [1] (rat, male Sprague-Dawley rats, IV 1 mg/kg in PBS, plasma, LC-HRMS, non-compartmental analysis, mean of n = 3, read-out: CL (plasma clearance)), the clearance was determined as 0.43 mL/min/kg. For the same compound, the C0 in data set [1] (rat, male Sprague-Dawley rats, IV 1 mg/kg in PBS, plasma, LC-HRMS, non-compartmental analysis, mean of n = 3, read-out: Co) turned out to be 3200 nM. Also, the Vd in data set [1] (rat, male Sprague-Dawley rats, IV 1 mg/kg in PBS, plasma, LC-HRMS, non-compartmental analysis, mean of n = 3, read-out: Vss) was 0.12 L/kg.

As to relaxin, the “cAMP response (efficacy)” value on hRXFP1 (S69P) is “reduced in all RXFP1 mutants compared to the wild type construct”.
